Experimental data from patent publication US20200338042A1, “USE OF DAPHNETIN IN TREATMENT OF AGE-RELATED COGNITIVE DECLINE” (XI'AN JIAOTONG UNIVERSITY, priority 2019, published 2020).

Assays:
Format in all cases: in vivo
APP/PS1 transgenic mice = assay: Morris water maze experiment in APP/PS1 transgenic mice; conditions: for path length for finding the platform in water maze: FIG. 1B
Text: (§1) APP/PS1 transgenic mouse model as the Alzheimer's disease transgenic mouse model was used in the experiments. The APP/PS1 double-transgenic mice overexpressing human Aβ precursor protein (APP) and presenilin 1 (PS1) in the brains can simulate typical pathological and neurological symptoms, such as Aβ deposition and cognitive function degeneration, of human AD.
A water maze experiment was used to observe the effect of daphnetin for improving the cognitive function of the mice.
The 3-month-old APP/PS1 transgenic mice and control mice were purchased from the Model Animal Center of Nanjing University. All mice were fed in an environment with a temperature from 23° C. to 25° C., a humidity of 60%, and a 12 h/12 h day/night light cycles. Mice had free access to food and water during the experiment.
After adapting to the feeding environment, the experimental mice were divided into four groups: 1) a group of wild type (WT) mice to which double-distilled water (ddH2O) was daily administered intragastrically (Group WT+ddH2O), the number (n) of the mice is 11 (n=11); 2) a group of wild type mice to which daphnetin was daily administered intragastrically at 100 mg/kg/day (Group WT+Daphnetin), n=12; 3) a group of APP/PS1 mice to which ddH2O was daily administered intragastrically (Group AD+ddH2O), n=15; 4) a group of APP/PS1 mice to which daphnetin was daily administered intragastrically at 100 mg/kg/day (Group AD+Daphnetin), n=14. The entire experiment was lasted for 12 months.
The daily intragastric administrations of daphnetin or ddH2O were lasting for 9 months to corresponding groups of mice before the water maze experiment.
Morris water maze experiment is a classic way to test spatial learning and memory abilities in mice. The experiment was conducted in a round swimming pool with a diameter of 120 cm, divided into four quadrants I, II, III, and IV. A small round platform with a diameter of 7.5 cm was placed in the center the quadrant IV, and submerged 1 cm below the water surface. Four different-shaped markers as visual cues were placed corresponding to the four quadrants on the curtain support around the swimming pool. During the experiment, the water temperature was kept at 25° C., the surroundings were kept quiet, and the swimming pool was isolated from the external environment by the curtain. Each mouse was allowed to swim freely in the swimming pool for 60 seconds (s) on the day before the formal experiment to adapt to the swimming environment. […] The camera placed on the top of the pool recorded the paths of the mice finding the hidden platform in the swimming pool. […] The times and distances that the mice travels to the platform recorded by the camera video tracking system were used to analyze the learning and memory of the mice. […]

Aβ40 = assay: ELISA detection of soluble Aβ40 in cerebral cortex tissues of APP/PS1 mice; conditions: Group AD+Daphnetin (APP/PS1 mice, 100 mg/kg/day intragastrically) compared to Group AD+ddH2O; one week after water maze; FIG. 2A
Text: as §1
(§2) The contents of Aβ40 and Aβ42 in the brain were detected by the enzyme-linked immunosorbent assay (ELISA) method to observe the effect of daphnetin for ameliorating abnormal protein deposition of the mice.
(§3) Daphnetin was purchased from Nanjing Puyi Biotechnology Co., Ltd.; Aβ40 and […] ELISA detection kits were purchased from Invitrogen Corporation. […]
(§4) Aβ plaque is a significant pathological feature of Alzheimer's disease. As Aβ40 and Aβ42 are most common in the process of producing Aβ, the contents of soluble Aβ40 and Aβ42 in the cerebral cortex tissues were detected by the ELISA method.
(§5) First, the cortex tissue was homogenized using a guanidine salt buffer (5 mol/L guanidine hydrochloride/50 mmol Tris HCl), and the tissue homogenate was centrifuged at 4° C. for 10 minutes at 10,000 g. […] The absorbance (OD450) at a wavelength of 450 nm was measured by a FlexStage3 microplate reader. Protein quantification was performed by using BCA method for ELISA protein calibration. […]

Aβ42 = assay: ELISA detection of soluble Aβ42 in cerebral cortex tissues of APP/PS1 mice; conditions: Group AD+Daphnetin (APP/PS1 mice, 100 mg/kg/day intragastrically) compared to Group AD+ddH2O; one week after water maze; FIG. 2B
Text: as §1, §2, §3, §4, §5

In the case of `O=c1ccc2ccc(O)c(O)c2o1` [Daphnetin, 7,8-dihydroxycoumarin], the “AUC of swimming time (escape latency) in water maze, Group AD+ddH2O compared to Group AD+Daphnetin” value (APP/PS1 transgenic mice; 5-day training, worded as AD+ddH2O relative to AD+Daphnetin (100 mg/kg/day intragastrically, 9 months), i.e. lower AUC with daphnetin, FIG. 1C) is reported as “increased significantly”, the “path length for finding the platform in water maze” value (APP/PS1 transgenic mice; day 4 of training, Group AD+Daphnetin (APP/PS1 mice, 100 mg/kg/day intragastrically, 9 months) compared to Group AD+ddH2O) is reported as “significant shortened” and the “escape latency in water maze (time to find the escape platform)” value (APP/PS1 transgenic mice; day 5 of training, Group AD+Daphnetin (APP/PS1 mice, 100 mg/kg/day intragastrically, 9 months) compared to Group AD+ddH2O, FIG. 1A) is reported as “significantly shortened”. The “path length for finding the platform in water maze” value (APP/PS1 transgenic mice; day 5 of training, Group AD+Daphnetin (APP/PS1 mice, 100 mg/kg/day intragastrically, 9 months) compared to Group AD+ddH2O) was “significant shortened”, the “level of Aβ40 in the cerebral cortex tissues” value (Aβ40) was “significantly reduced” and the “level of Aβ42 in the cerebral cortex tissues” value (Aβ42) was “significantly reduced”.
